# Experimental data from patent US20040171489A1, “Synergistic active compound combinations for controlling harmful plants” (priority 1998, published 2004).
# Legend:
# Setaria viridis = test: Example 19 field trial, 4 to 5-leaf stage: herbicidal effect; type: in vivo; details: 100 g of ai/ha; 31 days after application
# Method: (§1) The herbicidal efficacy of the active compounds or active compound mixtures was scored visually using the treated plots in comparison to untreated control plots. The damage and development of all above-ground parts of the plants were recorded. Scoring was carried out using a percentage scale (100% effect=all plants killed; 50% effect=50% of the plants and the green parts of the plants killed; 0% effect=no noticeable effect=like control plot. The scores of in each case 4 plots were averaged.
# (§2) If the observed activity values already exceed the formal sum of the values for the trials with the individual applications, they also exceed the expected value according to Colby which is calculated using the following formula and which is likewise considered to be an indication of synergism (cf. S. R. Colby; in Weeds 15 (1967) p. 20 to 22):
# (§3) Crop plants were grown outdoors on plots under natural outdoor conditions, and seeds or rhizome pieces of typical harmful plants were laid out or the natural weed growth was utilized. […] After the application, for example 2, 4, 6 and 8 weeks after the application, the effect of the preparations was scored visually by comparison with untreated controls (cf. scoring in Section 1). […]
# Echinochloa crus-galli = test: as above; type: in vivo; details: 100 g of ai/ha; 31 days after application
# Method: as §1, §2, §3
# winter wheat [1] = test: Example 12 field trial, 2- to 4-leaf stage: crop damage; type: in vivo, Triticum aestivum; details: 42 days after application
# Method: as §1, §2
# (§4) Crop plants were grown outdoors on plots under natural outdoor conditions, and seeds or rhizome pieces of typical harmful plants were laid out or the natural weed growth was utilized. Treatment with the compositions according to the invention was carried out after the harmful plants had emerged and the crop plants were, generally, at the 2- to 4-leaf stage; in some cases (as stated), application of individual active compounds or active compound combinations was carried out pre-emergence (cf. Section 1) or post-emergence (cf. Section 2) or as a sequential treatment partly pre-emergence and/or post-emergence. After the application, for example 2, 4, 6 and 8 weeks after the application, the effect of the preparations was scored visually by comparison with untreated controls (cf. scoring in Section 1). In the field trial as well, the compositions according to the invention have synergistic herbicidal activity against a broad spectrum of economically important weed grasses and broad-leaved weeds. […] Moreover, the effects in essential phases of the scoring period were above the expected values according to Colby, also indicating synergism. In contrast, the crop plants were, as a consequence of the treatments with the herbicidal compositions, damaged only to a small degree, if at all.
# winter wheat [2] = test: Example 10 pre-emergence application, fall: crop damage; type: in vivo, Triticum aestivum; details: 169 days after application
# Excerpt: (§5) Seeds or rhizome pieces of monocotyledonous and dicotyledonous weed plants are placed in sandy loam soil in pots and covered with soil. The compositions, formulated in the form of concentrated aqueous solutions, wettable powders or emulsion concentrates, are then applied to the surface of the soil cover as aqueous solution, suspension or emulsion at an application rate of 600 to 800 l of water/ha (converted), in various dosages. After the treatment, the pots are placed in a greenhouse and kept under good growth conditions for the weeds. After the test plants have emerged, the damage to the plants or the negative effects on the emergence is scored visually after a test period of 3 to 4 weeks by comparison with untreated controls. As shown by the test results, the compositions according to the invention have good herbicidal pre-emergence activity against a broad spectrum of weed grasses and broad-leaved weeds.
# as §1, §2, §4
# Oryza sativa (rice) [3] = test: Example 22 field trial, 2-leaf stage: crop damage; type: in vivo; details: 14 days after application
# Method: as §1, §2, §4
# winter wheat [4] = test: Example 16 field trial, post-emergence, 2- to 3-leaf stage: crop damage; type: in vivo, Triticum aestivum; details: 50 g of ai/ha; 69 days after application
# Method: as §1, §2, §3
# Matricaria chamomilla [5] = test: Example 14 field trial, 2- to 4-leaf stage: herbicidal effect; type: in vivo; details: 28 days after application
# Method: as §1, §2, §4
# Viola arvensis = test: Example 16 field trial, post-emergence, 2- to 3-leaf stage: herbicidal effect; type: in vivo; details: 50 g of ai/ha; 69 days after application
# Method: as §1, §2, §4
# Lamium ssp. = test: as above; type: in vivo; details: 50 g of ai/ha; 69 days after application
# Method: as §1, §2, §4
# Myosotis arvensis = test: as above; type: in vivo; details: 50 g of ai/ha; 69 days after application
# Method: as §1, §2, §4
# Anthemis arvensis = test: as above; type: in vivo; details: 50 g of ai/ha; 69 days after application
# Method: as §1, §2, §4
# Galium aparine = test: as above; type: in vivo; details: 50 g of ai/ha; 69 days after application
# Method: as §1, §2, §4
# Matricaria chamomilla [6] = test: as above; type: in vivo; details: 50 g of ai/ha; 69 days after application
# Method: as §1, §2, §4
# Papaver rhoeas = test: as above; type: in vivo; details: 50 g of ai/ha; 69 days after application
# Method: as §1, §2, §4
# Pharbitis purpurea = test: Example 21 field trial, 4-leaf stage: herbicidal effect; type: in vivo; details: 42 days after application
# Method: as §1, §2
# as §4, with “In contrast, the crop plants were, as a consequence of the treatments with the herbicidal compositions, damaged only to a small degree, if at all.” left out
# Zea mays (corn) = test: Example 19 field trial, 4 to 5-leaf stage: crop damage; type: in vivo; details: 100 g of ai/ha; 31 days after application
# Method: as §1, §2, §3
# winter barley [7] = test: Example 9 field trials, application 1-3 leaf stage broad-leaved weeds: crop damage; type: in vivo, Hordeum vulgare; details: 100 g of ai/ha; 120 to 160 days after application
# Method: as §1, §2
# as §4, with “In contrast, the crop plants were, as a consequence of the treatments with the herbicidal compositions, damaged only to a small degree, if at all.” left out
# winter barley [8] = test: Example 16 field trial, post-emergence, 2- to 3-leaf stage: crop damage; type: in vivo, Hordeum vulgare; details: 50 g of ai/ha; 69 days after application
# Method: as §1, §2, §3
# Lamium amolexicaule = test: Example 15 field trial, 2- to 4-leaf stage: herbicidal effect; type: in vivo; details: 28 days after application
# Method: as §1, §2, §4
# winter wheat [9] = test: Example 15 field trial, 2- to 4-leaf stage: crop damage; type: in vivo, Triticum aestivum; details: 28 days after application
# Method: as §1, §2, §4
# Oryza sativa (rice) [10] = test: Example 20 field trial, 3-leaf stage: crop damage; type: in vivo; details: 31 days after application
# Method: as §1, §2, §4
# Ipomoea hederacea = test: Example 17 field trial, pre-emergence: herbicidal effect; type: in vivo; details: 16 days after application
# Excerpt: as §5, §1, §2, §4
# [11] = test system: corn which is glufosinate-ammonium-resistant; test: Example 18 field trial, 3-leaf stage: crop damage; type: in vivo, Corn (LL); details: 100 g of ai/ha; 31 days after application
# Method: The damage and development of all above-ground parts of the plants were recorded.
# Crop plants were grown outdoors on plots under natural outdoor conditions, and seeds or rhizome pieces of typical harmful plants were laid out or the natural weed growth was utilized.
# Capsella bursa-pastoris = test: Example 11 field trial, 2- to 4-leaf stage: herbicidal effect; type: in vivo; details: 28 days after application
# Method: as §1, §2, §4
smiles,measurement,setting,value
"CC(C)(F)c1nc(N)nc(NC(CCc2ccccc2)C2CCC2)n1 (stereo not shown) [(A1), 4-amino-6-(1-fluoro-1-methylethyl)-2-(3-phenyl-1-cyclobutylpropylamino)-1,3,5-triazine]","herbicidal effect, SETVI",Setaria viridis,0%
same,"herbicidal effect, ECHCG",Echinochloa crus-galli,0%
same,"damage, TRZAW",winter wheat [1]; 12.5 g of ai/ha,0%
same,"damage, TRZAW",winter wheat [1]; 25 g of ai/ha,0%
same,"damage, TRZAW",winter wheat [1]; 50 g of ai/ha,0%
same,"damage, TRZAW",winter wheat [2]; 50 g of ai/ha,1%
same,"damage, TRZAW",winter wheat [2]; 100 g of ai/ha,2%
same,"damage, ORYSA",Oryza sativa (rice) [3]; 25 g of ai/ha,0%
same,"damage, ORYSA",Oryza sativa (rice) [3]; 50 g of ai/ha,10%
same,"damage, ORYSA",Oryza sativa (rice) [3]; 100 g of ai/ha,13%
same,"herbicidal effect (%), TRZAW (crop)",winter wheat [4],0%
same,"herbicidal effect, MATCH",Matricaria chamomilla [5]; 25 g of ai/ha,43%
same,"herbicidal effect, MATCH",Matricaria chamomilla [5]; 50 g of ai/ha,58%
same,"herbicidal effect, MATCH",Matricaria chamomilla [5]; 100 g of ai/ha,73%
same,"herbicidal effect (%), VIOAR",Viola arvensis,90%
same,"herbicidal effect (%), LAMSS",Lamium ssp.,53%
same,"herbicidal effect (%), MYOAR",Myosotis arvensis,81%
same,"herbicidal effect (%), ANTAR",Anthemis arvensis,0%
same,"herbicidal effect (%), GALAP",Galium aparine,66%
same,"herbicidal effect (%), MATCH",Matricaria chamomilla [6],19%
same,"herbicidal effect (%), PAPRH",Papaver rhoeas,96%
same,"herbicidal effect, PHBPU",Pharbitis purpurea; 25 g of ai/ha,90%
same,"herbicidal effect, PHBPU",Pharbitis purpurea; 50 g of ai/ha,95%
same,"herbicidal effect, PHBPU",Pharbitis purpurea; 100 g of ai/ha,97%
same,"damage, ZEAMA",Zea mays (corn),0%
same,"damage, HORVW",winter barley [7],0%
same,"herbicidal effect (%), HORVW (crop)",winter barley [8],0%
same,"herbicidal effect, LAMAM",Lamium amolexicaule; 25 g of ai/ha,60%
same,"herbicidal effect, LAMAM",Lamium amolexicaule; 50 g of ai/ha,74%
same,"herbicidal effect, LAMAM",Lamium amolexicaule; 100 g of ai/ha,80%
same,"damage, TRZAW",winter wheat [9]; 25 g of ai/ha,0%
same,"damage, TRZAW",winter wheat [9]; 50 g of ai/ha,2%
same,"damage, TRZAW",winter wheat [9]; 100 g of ai/ha,2%
same,"damage, ORYSA",Oryza sativa (rice) [10]; 25 g of ai/ha,0%
same,"damage, ORYSA",Oryza sativa (rice) [10]; 50 g of ai/ha,0%
same,"damage, ORYSA",Oryza sativa (rice) [10]; 100 g of ai/ha,0%
same,"herbicidal effect, IPOHE",Ipomoea hederacea; 50 g of ai/ha,85%
same,"herbicidal effect, IPOHE",Ipomoea hederacea; 100 g of ai/ha,93%
same,"damage, Corn (LL)",[11],0%
same,"herbicidal effect, CAPPBP",Capsella bursa-pastoris; 25 g of ai/ha,40%
same,"herbicidal effect, CAPPBP",Capsella bursa-pastoris; 50 g of ai/ha,68%
same,"herbicidal effect, CAPPBP",Capsella bursa-pastoris; 75 g of ai/ha,73%
same,"herbicidal effect, CAPPBP",Capsella bursa-pastoris; 100 g of ai/ha,79%
